{"source": "patent US20120208848A1", "about": "(NEUROSYSTEC CORPORATION, priority 2005, published 2012)", "format_in_all_cases": "physicochemical", "key": {"[1]": {"assay": "Solubility of gacyclidine as a function of pH and excipients, room temperature, glass vials", "method": "Thereafter the mixture remained standing at room temperature for two days.\nThe pH of the mixture was determined by use of a SympHony glass calomel micro combination pH electrode obtained from VWR (Cat. No. 14002-776). Oakton standard reference solutions at pH 7.00±0.01 (25° C.; 7.02 at 20° C.), 4.01±0.01 (25° C.; 4.00 at 20° C.) and 10.00 (25° C.; 10.05 at 20° C.) were obtained from Cole-Parmer. These standard pH solutions were used to calibrate a Cole-Parmer Model 5996-60 analog pH meter equipped with a SympHony electrode to within 0.01 pH units of reference solutions."}, "[2]": {"assay": "Loss of 25 μM gacyclidine in polypropylene vials with and without SOLUTOL HS 15", "details": "0.15 M NaCl, 37° C., one or three days", "method": "Some of these solutions also contained 0.1% SOLUTOL® HS 15.\nAlthough the results after three days of incubation parallel those obtained after one day of incubation at 37° C., the increased loss observed at low pH in the samples incubated for three days presumably reflected losses due to decomposition."}, "[3]": {"assay": "Chemical stability of gacyclidine acid and base forms (decomposition to piperidine)", "details": "for decomposition rate: 54° C.; for time required for 10% loss of gacyclidine due to decomposition / rate of decomposition: acid form", "method": "To monitor piperidine formation a Zorbax SB-CN column (25×0.46 cm, 5 μm; PN 880975, SN USS F01 3866) purchased from Agilent Technologies was maintained at 30° C. and eluted with a mixture composed of 50% Buffer A and 50% Buffer B at 150 μL/minute for 60 minutes. Buffer A was composed of water containing 0.1% trifluoroacetic acid and Buffer B was composed of acetonitrile containing 0.1% trifluoroacetic acid. The effluent from this column was interfaced with an AQA single quadrupole mass spectrometer (Thermo Electron) and a Surveyor PDA detector (UV monitor, Thermo Electron). The column effluent was monitored at 232 nm and scans were collected between 200 to 300 nm by use of the PDA detector. […] Piperidine was detected by the mass spectrometer at 16.0 minutes after injection onto the Zorbax SB-CN column (at m/z=86 only). Piperidine could not be detected by use of the PDA (UV monitor).\nBoth sets of samples were then incubated for various lengths of time at either 54 or 56° C.\nAt 5° C., the rate of decomposition was very slow and was difficult to measure, except by determining piperidine formation. The rate of decomposition at 5° C. was approximately 0.0001 day^−1, as determined by piperidine formation, or 0.000055 day^−1 as determined by extrapolation from the rates at higher temperature according to the Arrhenius relationship."}, "[4]": {"assay": "Effect of pH and polysorbate 80 on gacyclidine stability in Ringer's solution at 55° C.", "method": "These samples were then incubated at 55° C. for 24 hours. […] The pH of each sample was determined at 55° C. by use of a pH meter standardized at 55° C. The pH meter, electrode and standards were the same as described in Example 3."}, "[5]": {"assay": "Elution of gacyclidine from a suspension of the free base form", "method": "The pH of these solutions was monitored by use of a pH meter, as described in Example 3. […] The average temperature of these solutions was 23° C. and varied between 21 and 25° C."}, "[6]": {"details": "Ringer's Lactate 133 μM NaHCO3, 1.10 days"}, "[7]": {"details": "Ringer's Lactate 133 μM NaHCO3, 1.54 days"}, "[8]": {"details": "Ringer's Lactate 133 μM NaHCO3, 5.79 days"}, "[9]": {"details": "Ringer's Lactate without pH adjustment, 1.10 days"}, "[10]": {"details": "Ringer's Lactate without pH adjustment, 1.54 days"}, "[11]": {"details": "Ringer's Lactate without pH adjustment, 5.79 days"}}, "data": [{"compound": "CC1CCCCC1(c1cccs1)N1CCCCC1.Cl", "note": "(centres unmarked) [gacyclidine, 1-(2-methyl-1-thiophen-2-yl-cyclohexyl)-piperidine hydrochloride]", "values": [{"measurement": "gacyclidine remaining in solution at high pH", "setting": "[1]; 0.1% CAPTISOL, 1 mM added, room temperature, two days, glass", "result": "about 14 μM"}, {"measurement": "gacyclidine remaining in solution at high pH", "setting": "[1]; 0.1% SOLUTOL HS15, 1 mM added, room temperature, two days, glass", "result": "~96", "unit": "μM"}, {"measurement": "gacyclidine remaining in solution at high pH", "setting": "[1]; 0.1% TWEEN 80, 1 mM added, room temperature, two days, glass", "result": "~42", "unit": "μM"}, {"measurement": "gacyclidine base maintained in solution per gram of carrier molecule", "setting": "[1]; CAPTISOL, room temperature", "result": "0.004 grams per gram of carrier mole"}, {"measurement": "gacyclidine base maintained in solution per gram of carrier molecule", "setting": "[1]; SOLUTOL HS 15, room temperature", "result": "0.02 grams per gram of carrier mole"}, {"measurement": "gacyclidine base maintained in solution per gram of carrier molecule", "setting": "[1]; TWEEN 80, room temperature", "result": "0.01 grams per gram of carrier mole"}, {"measurement": "solubility kinetic at 2 days", "setting": "[1]; buffered aqueous solution, aqueous buffer, kinetic from dmso stock, pH 9.7, 1 mM added, room temperature, two days, glass, presence or absence of 0.1% SOLUPHOR P", "result": 2.6, "unit": "µM"}, {"measurement": "pH above which precipitation of gacyclidine was observed", "setting": "[1]; hydrochloride salt diluted to 1 mM in buffered aqueous solution", "result": "> 7"}, {"measurement": "gacyclidine remaining in solution, % of the added gacyclidine", "setting": "[1]; pH 9.7, 1 mM added, room temperature, two days, glass, presence or absence of 0.1% SOLUPHOR P", "result": 0.26, "unit": "%"}, {"measurement": "solubility", "setting": "[1]; thermodynamic from solid, hydrochloride salt, water, read-out: final concentration giving a clear solution in water", "result": "≥ 550000", "unit": "µM"}, {"measurement": "effect of 0.1% SOLUTOL on losses of gacyclidine from solution", "setting": "[2]", "result": "no effect"}, {"measurement": "pH above which losses of gacyclidine were observed", "setting": "[2]", "result": "> 6"}, {"measurement": "decomposition rate", "setting": "[3]; 1.0 mM gacyclidine in 10 mM hydrochloric acid (acid form)", "result": 0.52, "unit": "day⁻¹"}, {"measurement": "decomposition rate", "setting": "[3]; 1.0 mM gacyclidine suspended in 1.5 mM sodium hydroxide (base form)", "result": 0.0013, "unit": "day⁻¹"}, {"measurement": "time required for 10% loss of gacyclidine due to decomposition", "setting": "[3]; 5° C.", "result": 3, "unit": "years"}, {"measurement": "rate of decomposition", "setting": "[3]; 5° C., determined by piperidine formation", "result": "approximately 0.0001 day^−1"}, {"measurement": "rate of decomposition", "setting": "[3]; 5° C., extrapolation from rates at higher temperature (Arrhenius)", "result": 0.000055, "unit": "day⁻¹"}, {"measurement": "time required for 10% loss of gacyclidine due to decomposition", "setting": "[3]; 23° C.", "result": 53, "unit": "days"}, {"measurement": "time required for 10% loss of gacyclidine due to decomposition", "setting": "[3]; 37° C.", "result": 3.8, "unit": "days"}, {"measurement": "rate of decomposition", "setting": "[3]; 55° C.", "result": 0.73, "unit": "day⁻¹"}, {"measurement": "time required for 10% loss of gacyclidine due to decomposition", "setting": "[3]; 56° C.", "result": 0.138, "unit": "days"}, {"measurement": "piperidine formed from 100 μM gacyclidine", "setting": "[4]; 0.3% polysorbate 80, Ringer's solution, 55° C., 24 hours, pH 6.7", "result": 4.5, "unit": "µM"}, {"measurement": "piperidine formed from 100 μM gacyclidine", "setting": "[4]; 0.3% polysorbate 80, Ringer's solution, 55° C., 24 hours, pH 8.2", "result": 0.92, "unit": "µM"}, {"measurement": "loss of gacyclidine due to precipitation", "setting": "[4]; 0.3% polysorbate 80, Ringer's solution, 55° C., 24 hours, various pH", "result": "no loss of gacyclidine due to precipitation"}, {"measurement": "decomposition rate as % of the acid form rate at 55° C.", "setting": "[4]; 0.3% polysorbate 80, pH 6.7, 55° C.", "result": 6.4, "unit": "%"}, {"measurement": "decomposition rate as % of the acid form rate at 55° C.", "setting": "[4]; 0.3% polysorbate 80, pH 8.2, 55° C.", "result": 1.3, "unit": "%"}, {"measurement": "gacyclidine", "setting": "[5]; 2.8 mg free base in 20.0 mL Ringer's Lactate 133 μM NaHCO3, 23° C., 0.625 days", "result": 20.7, "unit": "µM"}, {"measurement": "gacyclidine", "setting": "[5]; 2.8 mg free base in 20.0 mL Ringer's Lactate without pH adjustment, 23° C., 0.625 days", "result": 56.4, "unit": "µM"}, {"measurement": "pH of free base suspension", "setting": "[5]; Ringer's Lactate 133 μM NaHCO3, 0.625 days", "result": 7.54}, {"measurement": "gacyclidine", "setting": "[5]; [6]", "result": 37.1, "unit": "µM"}, {"measurement": "pH of free base suspension", "setting": "[5]; [6]", "result": 7.58}, {"measurement": "gacyclidine", "setting": "[5]; [7]", "result": "46.2 ± 0.3", "unit": "µM"}, {"measurement": "pH of free base suspension", "setting": "[5]; [7]", "result": 7.51}, {"measurement": "gacyclidine", "setting": "[5]; [8]", "result": "76.3 ± 0.3", "unit": "µM"}, {"measurement": "pH of free base suspension", "setting": "[5]; [8]", "result": 7.62}, {"measurement": "gacyclidine", "setting": "[5]; Ringer's Lactate 133 μM NaHCO3, 9.85 days", "result": "77.2 ± 0.5", "unit": "µM"}, {"measurement": "gacyclidine", "setting": "[5]; Ringer's Lactate 133 μM NaHCO3, 12.9 days", "result": "72.9 ± 1.1", "unit": "µM"}, {"measurement": "gacyclidine", "setting": "[5]; Ringer's Lactate 133 μM NaHCO3, 14.0 days", "result": "75.7 ± 2.0", "unit": "µM"}, {"measurement": "time to reach equilibrium concentration", "setting": "[5]; Ringer's Lactate containing 0.13 mM sodium bicarbonate", "result": "≤ 10", "unit": "days"}, {"measurement": "equilibrium concentration as % of the total amount of gacyclidine base added", "setting": "[5]; Ringer's Lactate with added sodium bicarbonate", "result": "~14", "unit": "%"}, {"measurement": "equilibrium concentration as % of the total amount of gacyclidine base added", "setting": "[5]; Ringer's Lactate without added sodium bicarbonate", "result": "about 30%"}, {"measurement": "pH of free base suspension", "setting": "[5]; Ringer's Lactate without pH adjustment, 0.625 days", "result": 7.66}, {"measurement": "gacyclidine", "setting": "[5]; [9]", "result": 79.8, "unit": "µM"}, {"measurement": "pH of free base suspension", "setting": "[5]; [9]", "result": 7.44}, {"measurement": "gacyclidine", "setting": "[5]; [10]", "result": "88.3 ± 2.4", "unit": "µM"}, {"measurement": "pH of free base suspension", "setting": "[5]; [10]", "result": 7.46}, {"measurement": "gacyclidine", "setting": "[5]; [11]", "result": "124.4 ± 14.5", "unit": "µM"}, {"measurement": "pH of free base suspension", "setting": "[5]; [11]", "result": 7.38}, {"measurement": "gacyclidine", "setting": "[5]; Ringer's Lactate without pH adjustment, 9.85 days", "result": "152.4 ± 0.7", "unit": "µM"}, {"measurement": "gacyclidine", "setting": "[5]; Ringer's Lactate without pH adjustment, 12.9 days", "result": "162.2 ± 1.4", "unit": "µM"}, {"measurement": "gacyclidine", "setting": "[5]; Ringer's Lactate without pH adjustment, 14.0 days", "result": "157.9 ± 3.6", "unit": "µM"}, {"measurement": "time to reach equilibrium concentration", "setting": "[5]; Ringer's Lactate without sodium bicarbonate", "result": "≤ 10", "unit": "days"}, {"measurement": "maximum concentration achieved at equilibrium", "setting": "[5]; solid gacyclidine base, starting pH near physiologic pH", "result": "about 75 μM"}]}]}
